Results reported in patent publication US7005546B2, “Acetamidobenzamide compounds for neurodegenerative disorders” (Renovis, Inc., priority 1995, dated 2006).

Legend:
[1] = In vivo biotransformation of orally administered CPI1020, blood of rats; settings: rats given CPI1020 orally
Description: (§1) Commonly owned U.S. patent application Ser. No. 08/227,777, referred to above, discloses several benzamides useful in treating neurodegenerative diseases based on their protective action in the MPTP mouse model of Parkinson's disease. […] This compound is likely formed in the body by reduction of the ring nitro of CPI1020 to an amino moiety (CPI1160) followed by acetylation of the amino function.

[2] = test system: MPTP-induced reduction in striatal dopamine, C57BL/6J mice; assay: Dopamine depletion studies (MPTP mouse model of Parkinson's disease); assay type: in vivo; settings: for preventing dopamine depletion following MPTP challenge (in words): Table 1 conditions, 30 mg/kg p.o.
Procedure: These findings have led to the development of an assay for agents effective in treating dopamine-associated neurodegenerative disorders, such as Parkinson's disease. In this assay, test animals are given an amount of MPTP adequate to severely depress their dopamine levels. Test compounds are administered to determine if they are capable of preventing the loss of dopamine in the test animals. To the extent that dopamine levels are retained, a compound can be considered to be an effective agent for slowing or delaying the course of neurodegenerative disease, e.g., Parkinson's disease. C57BL/6J mice were pretreated with either vehicle (1% methyl cellulose) or a drug (p.o.) 30 min before MPTP. MPTP was dissolved in isotonic saline (0.9%) and given subcutaneously as a single dose of 15 mg free base/kg body weight to produce a reduction in striatal dopamine to about 0.5 nanomoles/mg protein. Groups of mice (n=8–10 per group) received either vehicle plus saline, vehicle plus MPTP or drug plus MPTP. Seventy two hours after receiving MPTP, mice were sacrificed using cervical dislocation and the striata were excised. The tissue was homogenized in 0.4 N perchloric acid, centrifuged, and the supernatant analyzed by high performance liquid chromatography/electro-chemical detection (HPLC/ED) for dopamine levels. Supernatants were stored in a −90° C. freezer between the time of collection and analysis. The drugs were combined with methyl cellulose and were homogenized in water for dosing. The dosage amount ranged from 10 to 50 mg/kg for CPI1160, CPI1189 and CPI1234, and from 50 to 100 mg/kg for CPI1020.

[3] = In vivo biotransformation of orally administered CPI1020, blood of mice; settings: mice given CPI1020 orally
Description: as §1

in vivo biotransformation product of CPI1020 in blood [1]	in vivo biotransformation product of CPI1020 in blood [3]	melting point	SMILES	preventing dopamine depletion following MPTP challenge (in words) [2]	protection from the neurotoxic action of MPTP (% of control) ([2]; 50 mg/kg p.o., 15 mg/kg MPTP model)
found in the blood	found in the blood		CC(=O)Nc1ccc(C(=O)NC(C)(C)C)cc1 [CPI1189, N-tert-butyl-4-acetamidobenzamide]	effective	
			CC(C)(C)NC(=O)c1ccc([N+](=O)[O-])cc1 [CPI1020, N-tert-butyl-4-nitrobenzamide, reference compound]		65 % of control
		194 to 195 °C	CC(=O)Nc1cccc(C(=O)NC(C)(C)C)c1 [CPI1234, N-tert-butyl-3-acetamidobenzamide]	effective	
		125 to 127 °C	CC(C)(C)NC(=O)c1ccc(N)cc1 [CPI1160, N-tert-butyl-4-aminobenzamide]	effective	
